Data reported in US20170071976A1, “PHARMACEUTICAL SOLUTION HAVING ANTI-TUMOR EFFECT-ENHANCING AND TOXICITY-REDUCING EFFECT, AND PHARMACEUTICAL COMPOSITION COMPRISING SAME” (priority 2014, published 2017).

Key:
[1] = system: human colon cancer HCT-116 cells; assay: Cell cycle by PI single staining (flow cytometry); format: cell-based; details: 72 hours
Procedure: Effect of deuterium oxide on the cell cycle of human lung cancer A549 cells and human colon cancer HCT-116 cells
A KGA511 Cell cycle assay kit was provided by NANJING KEYGEN BIOTECH. CO., LTD.
The flow cytometer was FACS Calibur provided by Becton-Dickinson, US.
(§1) 1.1. Warm water at 37° C. to 40° C. was prepared, a cryogenic vial of cells was taken out of liquid nitrogen and immediately put into the 37° C.-40° C. warm water, followed by vigorous shaking until the cryogenic liquid was completely thawed; 1.2. The suspension of cryogenic cells was transferred to a centrifugal tube, 5 ml culture medium was added thereto, and the cells were well mixed in the medium by gentle pipetting; 1.3. The cell suspension was centrifuged at 800 to 1,000 rpm for 5 min, and the supernatant was discarded; 1.4. A complete culture medium was added to the cell pellet which was well mixed by gentle pipetting, the cell suspension was transferred to a culture flask, and the cells were cultured by supplementing culture medium.
2.1. The original culture medium was removed by pipetting when the cell coverage reached 80% to 90% in the culture bottle; 2.2. A suitable amount of trypsin (0.25%) was added to digest for 1 to 2 min; 2.3. When all the cells became round, an equal volume of culture medium containing serum was added to cease the digestion; 2.4. The cells were blown by pipetting to suspend, then drawn into a 15 ml centrifugal tube, and centrifuged at 1000 rpm for 5 min; 2.5. The supernatant was discarded, and the cells were re-suspended in 1 to 2 ml culture medium and transferred to a culture bottle for further culturing.
1. Cells growing in the exponential phase were digested and inoculated to a 6-well plate; on the next day, after the cells attached to the wall, cell culture media containing corresponding test drugs were added according to different groups, and a negative control group was also set; 2. After treatment with test drugs for 72 hours, cells were digested with 0.25% pancreatin (EDTA-free) and collected; 3. The cells were washed with PBS once (centrifuged at 2,000 rpm for 5 min), and 5×10^5 cells were collected; 4. The prepared suspension of individual cells was fixed with 70% (v/v) ethanol for 2 hours (or overnight), and stored at 4° C.; before staining, the fixing solution was washed away with PBS (if necessary, the cell suspension was filtered once through a 200-mesh screen); 5. 100 μl RNase A was added, and the cells were water-bathed at 37° C. for 30 min; 6. 400 μl PI was added and well mixed for staining, and the cells were kept at 4° C. in darkness for 30 min; 7. In a detection apparatus, red fluorescence with an excitation wavelength of 488 nm was recorded.

adult human = assay: Theoretical extrapolation of the toxic deuterium oxide body content to an adult human; details: adult human of 60 kg body weight
Text: Deuterium oxide (heavy water, D2O, Mw: 20.03, CAS No. 7789-20-0) can be isolated from seawater. A normal body of adult human contains about 5 g deuterium oxide. […] Based on this experimental result, theoretically, assuming the body weight of an adult human is 60 kg, deuterium oxide that reaches 18 kg in the body starts to cause toxicity. However, it is actually impossible for a human body to have 18 kg deuterium oxide. […] Therefore, deuterium oxide should be a non-toxic substance [D. M. Czajka: Am. J. Physiol.

[2] = system: human colon cancer HCT-116 cells; assay: Cell invasion assayed by Transwell; format: cell-based; details: for Number of cells (HCT-116): invaded cells, control 65.0 ± 12.0; for Number of cells: invaded HCT-116 cells, control 76.0 ± 4.6
Procedure: Inhibition of invasion of human colon cancer HCT-116 cells and human lung cancer A549 cells by deuterium oxide in combination with 5-fluorouracil or gemcitabine (by the Transwell method)
as §1, with “vial” for “vial of cells”
1. […] After incubation of cells with the test drugs for 24 hours, serum was removed, and the cells were incubated under starvation with an incomplete culture medium for 24 hours; 3. Matrigel was placed at 4° C. in advance to thaw overnight; 4. Thawed Matrigel was 1:1 diluted with the incomplete culture medium, 30 μl diluted Matrigel was added to the upper compartment of Transwell and incubated at 37° C. for 120 min to gel the Matrigel; 5. Cells from different groups were digested, counted, and then adjusted to a density of 1×10^5 cells/ml with the incomplete culture medium, 100 μl cell suspension was added to the upper compartment (small compartment) of Transwell, and 500 μl medium containing 20% FBS was added to the lower compartment of Transwell; 6. A 24-well cell culture plate was placed in an incubator at 37° C. and 5% CO2 to culture the cells for 24 hours; 7. Cell counting: cells in the Matrigel and the upper compartment were wiped off with a cotton swab, the Transwell was removed, followed by inversion and air drying, 500 μl medium containing 0.1% crystal violet was added to the 24-well plate, the small compartment was placed in the medium to allow the membrane to be immersed in the dye, removed after holding at 37° C. for 30 min, washed with PBS, and photographed in 3 fields along the diameter (200× magnification) for cell counting. 8. The assay was repeated one more time.

| SMILES | G2 Phase ([1]; deuterium oxide 30% v/v, control 8.06 ± 1.89) | S Phase ([1]; deuterium oxide 30% v/v, control 9.40 ± 1.83) | G1 Phase ([1]; deuterium oxide 30% v/v, control 82.53 ± 1.76) | amount in the body that starts to cause toxicity (adult human) | Number of cells (HCT-116) ([2]; deuterium oxide 1.8% (v/v)) | Number of cells (HCT-116) ([2]; deuterium oxide 7.5% (v/v)) | Number of cells (HCT-116) ([2]; deuterium oxide 15% (v/v)) | Number of cells (HCT-116) ([2]; deuterium oxide 30% (v/v)) | Number of cells (HCT-116) ([2]; deuterium oxide […] (v/v)) | G1 Phase ([1]; 5-FU 12.5 ug/ml in NS) | G2 Phase ([1]; 5-FU 12.5 ug/ml in NS) | S Phase ([1]; 5-FU 12.5 ug/ml in NS) | Number of cells ([2]; 5-FU 0.195 ug/ml in NS) | Number of cells ([2]; 5-FU 0.39 ug/ml in NS) | Number of cells ([2]; 5-FU 0.78 ug/ml in NS) | Number of cells ([2]; 5-FU 1.56 ug/ml in NS) | Number of cells ([2]; 5-FU 3.125 ug/ml in NS) | Number of cells ([2]; 5-FU 6.25 ug/ml in NS) | Number of cells ([2]; 5-FU 12.5 ug/ml in NS) |
| --- | --- | --- | --- | --- | --- | --- | --- | --- | --- | --- | --- | --- | --- | --- | --- | --- | --- | --- | --- |
| [2H]O[2H] [Deuterium oxide] | 4.21 ± 0.95% | 6.61 ± 1.41% | 89.19 ± 3.81% | 18 kg | 29.3 ± 5.1 | 3.7 ± 0.6 | 3.0 ± 1.0 | 1.70 ± 0.6 | 16.3 ± 3.2 |  |  |  |  |  |  |  |  |  |  |
| O=c1[nH]cc(F)c(=O)[nH]1 [Example 5-FU, 5-fluorouracil] |  |  |  |  |  |  |  |  |  | 32.69 ± 8.66% | 41.24 ± 2.97% | 26.07 ± 11.32% | 66.0 ± 2.6 | 47.3 ± 4.0 | 31.3 ± 1.5 | 23.0 ± 4.6 | 12.0 ± 2.0 | 10.7 ± 1.5 | 6.3 ± 0.6 |
